target: human TYK2 (JH2domain-pseudokinase) (Homo sapiens (Human), UniProt P29597); test: TYK2 JH2 Domain Binding Assay (KINOMEscan); details: 11-point 3-fold dilution, top concentration 30,000 nM, duplicate; read-out: hTYK2_JH2_Binding (Kd; nM)
Experimental: Binding constants for compounds of the present invention against the JH2 domain were determined by the following protocol for a KINOMEscan® assay (DiscoveRx). A fusion protein of a partial length construct of human TYK2 (JH2domain-pseudokinase) (amino acids G556 to D888 based on reference sequence NP_003322.3) and the DNA binding domain of NFkB was expressed in transiently transfected HEK293 cells. From these HEK 293 cells, extracts were prepared in M-PER extraction buffer (Pierce) in the presence of Protease Inhibitor Cocktail Complete (Roche) and Phosphatase Inhibitor Cocktail Set II (Merck) per manufacturers' instructions. The TYK2(JH2domain-pseudokinase) fusion protein was labeled with a chimeric double-stranded DNA tag containing the NFkB binding site (5′-[…]-3′) fused to an amplicon for qPCR readout, which was added directly to the expression extract (the final concentration of DNA-tag in the binding reaction is 0.1 nM).
The liganded beads were blocked with excess biotin and washed with blocking buffer (SeaBlock (Pierce), 1% BSA, 0.05% Tween 20, 1 mM DTT) to remove unbound ligand and to reduce nonspecific binding.
Extracts were loaded with DNA-tag and diluted into the binding reaction in a two step process. First extracts were diluted 1:100 in 1× binding buffer (PBS/0.05% Tween 20/10 mM DTT/0.1% BSA/2 μg/ml sonicated salmon sperm DNA) containing 10 nM DNA-tag. This dilution was allowed to equilibrate at room temperature for 15 minutes and then subsequently diluted 1:100 in 1× binding buffer. […] Kds were determined using an 11-point 3-fold compound dilution series with three DMSO control points. […] The compounds were then diluted directly into the assays such that the final concentration of DMSO was 0.9%. All reactions performed in polypropylene 384-well plates. Each was a final volume of 0.02 mL. Assays were incubated with shaking for 1 hour at room temperature. Then the beads were pelleted and washed with wash buffer (lx PBS, 0.05% Tween 20) to remove displaced kinase and test compound. […] The qPCR protocol consisted of a 10 minute hot start at 95° C., followed by 35 cycles of 95° C. for 15 seconds, 60° C. for 1 minute.
Kds were determined using an 11-point 3-fold compound dilution series with three DMSO control points. […] The compounds were then diluted directly into the assays such that the final concentration of DMSO was 0.9%. The Kds were determined using a compound top concentration of 30,000 nM. Kd measurements were performed in duplicate.
Binding constants (Kds) were calculated with a standard dose-response curve using the Hill equation: […]
The Hill Slope was set to −1.

Sequence of human TYK2 (JH2domain-pseudokinase) (P29597 556-888): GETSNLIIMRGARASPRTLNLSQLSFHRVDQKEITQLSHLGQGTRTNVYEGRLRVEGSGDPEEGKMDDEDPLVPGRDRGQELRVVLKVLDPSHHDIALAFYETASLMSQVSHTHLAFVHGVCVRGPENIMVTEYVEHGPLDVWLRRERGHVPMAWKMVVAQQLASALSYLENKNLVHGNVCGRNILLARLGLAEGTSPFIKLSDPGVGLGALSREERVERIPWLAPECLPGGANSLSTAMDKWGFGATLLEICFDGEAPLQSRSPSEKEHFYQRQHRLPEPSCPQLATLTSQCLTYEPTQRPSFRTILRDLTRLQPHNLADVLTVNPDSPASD

Row | SMILES | Kd [nM]
1 | CNc1cc(Nc2cccn(-c3ccc(C)nc3)c2=O)nc2c(C(=O)N[C@H]3C[C@@H]3OC)cnn12 [Compound I-35, N-((1S,2S)-2-Methoxycyclopropyl)-5-((6′-methyl-2-oxo-2H-[1,3′-bipyridin]-3-yl)amino)-7-(methylamino)pyrazolo[1,5-a]pyrimidine-3-carboxamide] | < 0.2
2 | CNc1cc(Nc2cccn([C@@H]3CC[C@@H]3O)c2=O)nc2c(C(=O)N[C@@H]3CCC[C@@H](OC)C3)cnn12 [Compound I-98, 5-((1-((1R,2S)-2-Hydroxycyclobutyl)-2-oxo-1,2-dihydropyridin-3-yl)amino)-N-((trans-1,3)-3-methoxycyclohexyl)-7-(methylamino)pyrazolo[1,5-a]pyrimidine-3-carboxamide] | < 0.2
3 | CNc1cc(-c2cn([C@@H]3COC[C@H]3OC)c3ncccc23)nc2c(C(=O)N[C@@H]3C[C@@H]3F)cnn12 [Compound I-503] | < 0.2
4 | CNc1cc(-c2ccc(N3CC[C@H](OC)C3)c3nccn23)nc2c(C(=O)NC3CC[C@H]3O)cnn12 (stereo partly shown) [Compound I-907] | < 0.2
5 | CNc1cc(-c2cnc3n(CC(=O)N4CC5(COC5)C4)cccc2-3)nc2c(C(=O)NC3CC[C@@H]3OC)cnn12 (mixture of isomers) [Compound I-970] | < 0.2
6 | CNc1cc(-c2cn(CCN3CCOCC3)c3ncccc23)nc2c(C(=O)N[C@@H]3CC[C@H]3OC)cnn12 [Compound I-55, N-((1R,2R)-2-Methoxycyclobutyl)-7-(methylamino)-5-(1-(2-morpholinoethyl)-1H-pyrrolo[2,3-b]pyridin-3-yl)pyrazolo[1,5-a]pyrimidine-3-carboxamide] | 0.2 to 1
7 | CNc1cc(Nc2cccn(C3CC(F)(F)C3)c2=O)nc2c(C(=O)N[C@H]3CCC[C@]3(C)O)cnn12 [Compound I-90, 5-((1-(3,3-Difluorocyclobutyl)-2-oxo-1,2-dihydropyridin-3-yl)amino)-N-((1S,2S)-2-hydroxy-2-methylcyclopentyl)-7-(methylamino)pyrazolo[1,5-a]pyrimidine-3-carboxamide] | > 10
8 | CNc1cc(-c2cn(C3CCOCC3)c3ncccc23)nc2c(C(=O)N[C@H]3CCC[C@H](O)C3)cnn12 [Compound I-65, N-((1S,3S)-3-Hydroxycyclohexyl)-7-(methylamino)-5-(1-(tetrahydro-2H-pyran-4-yl)-1H-pyrrolo[2,3-b]pyridin-3-yl)pyrazolo[1,5-a]pyrimidine-3-carboxamide] | < 0.2
9 | CNc1cc(Nc2cccn([C@H]3CC[C@H]3O)c2=O)nc2c(C(=O)N[C@H]3CCC[C@H](OC)C3)cnn12 [Compound I-105, 5-((1-((1S,2R)-2-Hydroxycyclobutyl)-2-oxo-1,2-dihydropyridin-3-yl)amino)-N-((1S,3S)-3-methoxycyclohexyl)-7-(methylamino)pyrazolo[1,5-a]pyrimidine-3-carboxamide] | 1 to 10
10 | CNc1ccc(-c2cc(NC)n3ncc(C(=O)NC4CC4)c3n2)n2ccnc12 [Compound I-478, N-Cyclopropyl-7-(methylamino)-5-(8-(methylamino)imidazo[1,2-a]pyridin-5-yl)pyrazolo[1,5-a]pyrimidine-3-carboxamide] | 0.2 to 1
11 | CNc1cc(Nc2cccn([C@H]3CC[C@H]3O)c2=O)nc2c(C(=O)N[C@@H]3CCC[C@@H](OC)C3)cnn12 [Compound I-104, 5-((1-((1S,2R)-2-Hydroxycyclobutyl)-2-oxo-1,2-dihydropyridin-3-yl)amino)-N-((1R,3R)-3-methoxycyclohexyl)-7-(methylamino)pyrazolo[1,5-a]pyrimidine-3-carboxamide] | 1 to 10
12 | CNc1cc(Nc2cccn([C@H]3C[C@@H]3F)c2=O)nc2c(C(=O)N[C@@H]3CC[C@H]3OC)cnn12 [Compound I-50, 5-((1-((1S,2S)-2-Fluorocyclopropyl)-2-oxo-1,2-dihydropyridin-3-yl)amino)-N-((1R,2R)-2-methoxycyclobutyl)-7-(methylamino)pyrazolo[1,5-a]pyrimidine-3-carboxamide] | 1 to 10
13 | CNc1cc(-c2cnc3n(C4CCN(CCOC)CC4)cccc2-3)nc2c(C(=O)N[C@@H]3CC[C@H]3OC)cnn12 [Compound I-1021, N-((1R,2R)-2-methoxycyclobutyl)-5-(7-(1-(2-methoxyethyl)piperidin-4-yl)-7H-pyrrolo[2,3-b]pyridin-3-yl)-7-(methylamino)pyrazolo[1,5-a]pyrimidine-3-carboxamide] | 0.2 to 1
14 | CNc1cc(Nc2cccn([C@H]3[C@@H]4COC[C@@H]43)c2=O)nc2c(C(=O)N[C@@H]3CCC3(F)F)cnn12 [Compound I-308] | < 0.2
15 | CNc1cc(Nc2cccn([C@H]3C[C@@H]3F)c2=O)nc2c(C(=O)N[C@H]3CC[C@@H](O)C3)cnn12 [Compound I-45, 5-((1-((1S,2S)-2-Fluorocyclopropyl)-2-oxo-1,2-dihydropyridin-3-yl)amino)-N-((1S,3R)-3-hydroxycyclopentyl)-7-(methylamino)pyrazolo[1,5-a]pyrimidine-3-carboxamide] | 0.2 to 1
16 | O=C(N[C@H]1CCC1(F)F)c1cnn2c3c(c(-c4cn(C5COC5)c5ncccc45)nc12)OCCN3 [Compound I-773] | < 0.2
17 | CNc1cc(-c2cn([C@H]3CO[C@@H](COC)C3)c3ncccc23)nc2c(C(=O)N[C@@H]3CC[C@H]3OC)cnn12 [Compound I-1019, N-((1R,2R)-2-methoxycyclobutyl)-5-(1-(5-(methoxymethyl)tetrahydrofuran-3-yl)-1H-pyrrolo[2,3-b]pyridin-3-yl)-7-(methylamino)pyrazolo[1,5-a]pyrimidine-3-carboxamide] | 1 to 10
18 | CNc1cc(Nc2cccn([C@H]3CCC[C@@](C)(O)C3)c2=O)nc2c(C(=O)NC3CC3)cnn12 [Compound I-2, N-Cyclopropyl-5-((1-((1S,3R)-3-hydroxy-3-methylcyclohexyl)-2-oxo-1,2-dihydropyridin-3-yl)amino)-7-(methylamino)pyrazolo[1,5-a]pyrimidine-3-carboxamide] | 0.2 to 1
19 | CNc1cc(Nc2cccn(-c3coc(C)n3)c2=O)nc2c(C(=O)NC3CC3)cnn12 [Compound I-121] | > 10
20 | CNc1cc(-c2cn([C@@H]3CCOC[C@H]3O)c3ncccc23)nc2c(C(=O)N[C@@H]3C[C@@H]3F)cnn12 [Compound I-505] | < 0.2

tested on: IL-12 induced STAT4 phosphorlyation mediated by TYK2/JAK2; test: IL-12 Induced pSTAT4 in Human PBMC; assay type: cell-based; details: 1.7 ng/mL IL-12 for 30 minutes
Method in brief: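 pSTAT4 and total STAT4 quantified by MSD in lysates of cryopreserved human PBMC after 30-minute stimulation with 1.7 ng/mL IL-12 (final). Compound was added 1 hr beforehand at 37° C, 0.1% DMSO final.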

Row | SMILES | IC50 [µM]
21 | CNc1cc(Nc2cccn([C@@H]3CCCC[C@@H]3O)c2=O)nc2c(C(=O)NC3CC[C@@H]3F)cnn12 (stereo partly shown) [Compound I-209] | < 0.1
22 | CNc1cc(Nc2cccn(C3CCOCC3)c2=O)nc2c(C(=O)N[C@H]3CC[C@]3(C)O)cnn12 [Compound I-349] | < 0.1
23 | CNc1cc(-c2cnc3n([C@H]4COC[C@@H]4O)cccc2-3)nc2c(C(=O)NC3CCC3(F)F)cnn12 (stereo partly shown) [Compound I-898] | < 0.1
24 | CNc1cc(-c2cn([C@H]3C[C@@H](COC)C3)c3ncccc23)nc2c(C(=O)N[C@@H]3CC[C@@H]3O)cnn12 [Compound I-914] | < 0.1
25 | CNc1cc(Nc2cccn([C@H]3C[C@H](F)C3)c2=O)nc2c(C(=O)N[C@@H]3CC[C@H]3OC)cnn12 [Compound I-57, 5-((1-((1r,3R)-3-Fluorocyclobutyl)-2-oxo-1,2-dihydropyridin-3-yl)amino)-N-((1R,2R)-2-methoxycyclobutyl)-7-(methylamino)pyrazolo[1,5-a]pyrimidine-3-carboxamide] | < 0.1
26 | CNc1cc(Nc2cccn([C@H]3CCC[C@@H](C#N)C3)c2=O)nc2c(C(=O)NC3CCC3(F)F)cnn12 (stereo partly shown) [Compound I-330] | < 0.1
27 | CNc1cc(Nc2cccn(-c3ncccc3F)c2=O)nc2c(C(=O)N[C@@H]3CC[C@@]3(C)OC)cnn12 [Compound I-415] | < 0.1

same assay, conditions: 0.5 h, 1.7 ng/mL IL-12 for 30 minutes

Row | SMILES | IC50 [µM]
28 | CNc1cc(-c2cn([C@H]3CCOC[C@H]3OC)c3ncccc23)nc2c(C(=O)NC3CC[C@@H]3OC)cnn12 (stereo partly drawn) [Compound I-665, N-((trans-1,2)-2-Methoxycyclobutyl)-5-(1-((3S,4S)-3-methoxytetrahydro-2H-pyran-4-yl)-1H-pyrrolo[2,3-b]pyridin-3-yl)-7-(methylamino)pyrazolo[1,5-a]pyrimidine-3-carboxamide] | < 0.1

Source: patent US11414431B2, “Substituted pyrazolo[1,5-a]pyrimidines as TYK2 inhibitors” (Nimbus Lakshmi, Inc., priority 2018, dated 2022)
